Results published in patent US20110110911A1 (priority 2009, published 2011).

Tested on: DU-145 cells
Assay type: cell-based, human

C=C1[C@@H](C)[C@H]2[C@H](Cc3ccccc3)NC(=O)[C@]23[C@H](OC(C)=O)/C=C/[C@@](C)(O)C(=O)[C@@H](C)C/C=C/[C@H]3[C@@H]1O [Cytochalasin-D]
Relative Wound Density at 24 Hours, Mean: 3.3 ± 0.2 | Relative Wound Density at 24 Hours, Percent Relative to Media: 4% | effect on cell migration (in words): did not migrate
